For assay [1], the system named is primary human T-cells. Put plainly: Proliferation assay after 5 days (CellTiter-Glo, CD3 stimulation; PBS counter screen). It is filed as cell-based. The settings on record: CD3 stimulation; for Emax: read-out: Emax proliferation (% activation); for EC50: primary human T-cells, CellTiter-Glo after 5 days, EC50 of fitted sigmoidal curve, read-out: Tcell Proliferation CD3 EC50. The method, boiled down:
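After compound addition to medium-only plates, cells are cultured 5 days, equilibrated to room temperature, mixed with an equal volume of CellTiter-Glo 2.0 and rocked 15 min before luminescence is read. Signal reflects ATP content, taken as proportional to cell number.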
For orientation: In ATP-based viability assays light output follows the ATP content of the culture.

Assay [2] has as its system primary human T-cells.
Setting [3] is: Homo sapiens, T-cell, 120 h, 5 days, normalized to reference compound A1 as stimulator control = 100%, DMSO neutral control.

Read-outs that look alike come from different tables or passages of the source.

On to `CC(=O)N1CCCC(n2nnc(-c3cc4c(cc3F)S(=O)(=O)C[C@H](N)C(=O)N4Cc3ccc(Cl)cc3)n2)C1` (stereo partly drawn) [Example 13, (3R)-7-[2-(1-acetyl-3-piperidyl)tetrazol-5-yl]-3-amino-5-[(4-chlorophenyl)methyl]-8-fluoro-1,1-dioxo-2,3-dihydro-1λ^6,5-benzothiazepin-4-one], for which the Emax in the assay on primary human T-cells [1] (setting [3]) was found to be 87%. Also, the EC50 with primary human T-cells [1] (Homo sapiens, T-cell, 120 h) is 3510 nM; in the assay with primary human T-cells [2], over 10000 nM.
On to `CC(=O)N1CC(c2nnc(-c3cc4c(cc3F)S(=O)(=O)C[C@H](N)C(=O)N4Cc3ccc(Cl)cc3)o2)C2(CC2)C1` (stereo partly drawn) [Example 175, (3R)-7-[5-(5-acetyl-5-azaspiro[2.4]heptan-7-yl)-1,3,4-oxadiazol-2-yl]-3-amino-5-[(4-chlorophenyl)methyl]-8-fluoro-1,1-dioxo-2,3-dihydro-1λ^6,5-benzothiazepin-4-one], for which the Emax with primary human T-cells [1] (setting [3]) was 62%. The EC50 was 7040 nM with primary human T-cells [1] (Homo sapiens, T-cell, 120 h) and over 10000 nM in the assay with primary human T-cells [2].
For `Cc1cc2c(cc1-c1nnc(C(C)(C)C#N)o1)N(Cc1ccc(Cl)cc1)C(=O)[C@@H](N)CS2(=O)=O` [Example 276, 2-[5-[(3R)-3-amino-5-[(4-chlorophenyl)methyl]-8-methyl-1,1,4-trioxo-2,3-dihydro-1λ^6,5-benzothiazepin-7-yl]-1,3,4-oxadiazol-2-yl]-2-methyl-propanenitrile], the Emax with primary human T-cells [1] (setting [3]) is 96%. In addition, the EC50 worked out at 2730 nM with primary human T-cells [1] (Homo sapiens, T-cell, 120 h) and 1060 nM in the assay on primary human T-cells [2].
`NC(c1nnc(-c2cc3c(cc2F)S(=O)(=O)C[C@H](N)C(=O)N3Cc2ccc(OC(F)(F)F)cc2)o1)C(F)(F)F` (stereo partly drawn) [Example 58, (3R)-3-amino-7-[5-(1-amino-2,2,2-trifluoro-ethyl)-1,3,4-oxadiazol-2-yl]-8-fluoro-1,1-dioxo-5-[[4-(trifluoromethoxy)phenyl]methyl]-2,3-dihydro-1λ^6,5-benzothiazepin-4-one]: the Emax in the assay with primary human T-cells [1] (setting [3]) was found to be 126%. The EC50 in the assay on primary human T-cells [1] (Homo sapiens, T-cell, 120 h) is 684 nM; in the assay on primary human T-cells [2] it was 220 nM.
As for `NC(c1nc(-c2cc3c(cc2F)S(=O)(=O)C[C@H](N)C(=O)N3Cc2ccc(OC(F)(F)F)cc2)no1)C(F)(F)F` (stereo partly drawn) [Example 329, (3R)-3-amino-7-[5-(1-amino-2,2,2-trifluoro-ethyl)-1,2,4-oxadiazol-3-yl]-8-fluoro-1,1-dioxo-5-[[4-(trifluoromethoxy)phenyl]methyl]-2,3-dihydro-1λ^6,5-benzothiazepin-4-one], in the assay on primary human T-cells [1] (setting [3]), the Emax came to 70%. In addition, the EC50 in the assay with primary human T-cells [1] (Homo sapiens, T-cell, 120 h) turned out to be 5330 nM; in the assay on primary human T-cells [2], 198 nM.
Take `CC(C)(C)c1nnc(-c2cc3c(cc2F)S(=O)(=O)C[C@H](N)C(=O)N3Cc2ccc(Oc3ccccc3)cc2)o1` [Example 233]: the Emax with primary human T-cells [1] (setting [3]) is 127%. The EC50 turned out to be 86.6 nM in the assay on primary human T-cells [1] (Homo sapiens, T-cell, 120 h) and 95 nM in the assay on primary human T-cells [2].
With `C[C@@H](COC(F)(F)F)Nc1nnc(-c2cc3c(cc2F)S(=O)(=O)C[C@H](N)C(=O)N3Cc2ccc(Cl)cc2)o1` [Example 503, (3R)-3-amino-5-[(4-chlorophenyl)methyl]-8-fluoro-1,1-dioxo-7-[5-[[(1S)-1-methyl-2-(trifluoromethoxy)ethyl]amino]-1,3,4-oxadiazol-2-yl]-2,3-dihydro-1λ^6,5-benzothiazepin-4-one], the Emax in the assay with primary human T-cells [1] (setting [3]) was determined as 135%. Besides, the EC50 with primary human T-cells [1] (Homo sapiens, T-cell, 120 h) was 371 nM; in the assay with primary human T-cells [2], 3090 nM.
With `CC(=O)N1CC(n2nnc(-c3cc4c(cc3F)S(=O)(=O)C[C@H](N)C(=O)N4Cc3ccc(Cl)cc3)n2)CC(F)(F)C1` (stereo partly drawn) [Example 24, (3R)-7-[2-(1-acetyl-5,5-difluoro-3-piperidyl)tetrazol-5-yl]-3-amino-5-[(4-chlorophenyl)methyl]-8-fluoro-1,1-dioxo-2,3-dihydro-1λ^6,5-benzothiazepin-4-one], the Emax in the assay on primary human T-cells [1] (setting [3]) turned out to be 95%. Moreover, the EC50 was found to be 2020 nM with primary human T-cells [1] (Homo sapiens, T-cell, 120 h) and 6620 nM in the assay with primary human T-cells [2].
As for `CC(C)(C)NC(=O)c1nc(-c2cc3c(cc2F)S(=O)(=O)C[C@H](N)C(=O)N3Cc2ccc(OC(F)(F)F)cc2)no1` [Example 330, 3-[(3R)-3-amino-8-fluoro-1,1,4-trioxo-5-[[4-(trifluoromethoxy)phenyl]methyl]-2,3-dihydro-1λ^6,5-benzothiazepin-7-yl]-N-tert-butyl-1,2,4-oxadiazole-5-carboxamide], the Emax in the assay with primary human T-cells [1] (setting [3]) was 132%. Also, the EC50 with primary human T-cells [1] (Homo sapiens, T-cell, 120 h) came out at 291 nM; in the assay with primary human T-cells [2], 1830 nM.
On to `CC(C)(C#N)c1nnc(-c2ccc3c(c2)N(Cc2ccc(OC(F)(F)F)cc2)C(=O)[C@@H](N)CS3(=O)=O)o1` [Example 420, 2-[5-[(3R)-3-amino-1,1,4-trioxo-5-[[4-(trifluoromethoxy)phenyl]methyl]-2,3-dihydro-1λ^6,5-benzothiazepin-7-yl]-1,3,4-oxadiazol-2-yl]-2-methyl-propanenitrile], for which, in the assay on primary human T-cells [1] (setting [3]), the Emax was determined as 167%. Further, the EC50 came to 1590 nM in the assay with primary human T-cells [1] (Homo sapiens, T-cell, 120 h) and 1350 nM in the assay with primary human T-cells [2].
Consider `Cc1cc2c(cc1-c1nnc(C(C)C#N)o1)N(Cc1ccc(Cl)cc1)C(=O)[C@@H](N)CS2(=O)=O` (stereo partly drawn) [Example 277, 2-[5-[(3R)-3-amino-5-[(4-chlorophenyl)methyl]-8-methyl-1,1,4-trioxo-2,3-dihydro-1λ^6,5-benzothiazepin-7-yl]-1,3,4-oxadiazol-2-yl]propanenitrile], for which the Emax in the assay on primary human T-cells [1] (setting [3]) stood at 59%. For the same compound, the EC50 in the assay on primary human T-cells [1] (Homo sapiens, T-cell, 120 h) was 8220 nM; in the assay with primary human T-cells [2], 6940 nM.
Regarding `N[C@H]1CS(=O)(=O)c2cc(F)c(-c3nnc(CC4CCOCC4)o3)cc2N(Cc2ccc(Cl)cc2)C1=O` [Example 78, (3R)-3-Amino-5-[(4-chlorophenyl)methyl]-8-fluoro-1,1-dioxo-7-[5-(tetrahydropyran-4-ylmethyl)-1,3,4-oxadiazol-2-yl]-2,3-dihydro-1λ^6,5-benzothiazepin-4-one], in the assay with primary human T-cells [1] (setting [3]), the Emax amounted to 86%. Moreover, the EC50 with primary human T-cells [1] (Homo sapiens, T-cell, 120 h) amounted to 1110 nM; in the assay with primary human T-cells [2] it was 2350 nM.
`N[C@H]1CS(=O)(=O)c2ccc(-c3nnc(-c4ccccc4F)o3)cc2N(Cc2ccc(Cl)cc2)C1=O` [Example 376, (3R)-3-amino-5-[(4-chlorophenyl)methyl]-7-[5-(2-fluorophenyl)-1,3,4-oxadiazol-2-yl]-1,1-dioxo-2,3-dihydro-1λ^6,5-benzothiazepin-4-one]: in the assay on primary human T-cells [1] (setting [3]), the Emax turned out to be 70%. For the same compound, the EC50 in the assay on primary human T-cells [1] (Homo sapiens, T-cell, 120 h) was determined as 4460 nM; in the assay with primary human T-cells [2] it was 3200 nM.
As for `N[C@H]1CS(=O)(=O)c2cc(F)c(-c3nnc(C4CCC(F)(F)CC4)o3)cc2N(Cc2ccc(Cl)cc2)C1=O` [Example 73, (3R)-3-Amino-5-[(4-chlorophenyl)methyl]-7-[5-(4,4-difluorocyclohexyl)-1,3,4-oxadiazol-2-yl]-8-fluoro-1,1-dioxo-2,3-dihydro-1λ^6,5-benzothiazepin-4-one], the Emax in the assay on primary human T-cells [1] (setting [3]) came out at 194%. Also, the EC50 in the assay on primary human T-cells [1] (Homo sapiens, T-cell, 120 h) stood at 126 nM; in the assay on primary human T-cells [2] it was 50.2 nM.
In the case of `CN1CC(c2nc(-c3cc4c(cc3F)[S+]([O-])C[C@H](N)C(=O)N4Cc3ccc(Cl)cc3)no2)CC(F)(F)C1` (single isomer, unassigned; epimer a) [Example 342], the “Emax proliferation (% activation)” value in the assay with primary human T-cells [1] (5 days, normalized to reference compound A1 as stimulator control = 100%, DMSO neutral control) was determined as 80 % activation. In addition, the values for the EC50 in the assay with primary human T-cells [1] and in the assay with primary human T-cells [2] were 4850 nM and over 10000 nM, respectively.
As for `N[C@H]1CS(=O)(=O)c2ccc(-c3nnc(N4CCOC5CC54)o3)cc2N(Cc2ccc(Cl)cc2)C1=O` (stereo partly drawn) [Example 408, (3R)-3-amino-5-[(4-chlorophenyl)methyl]-7-[5-(2-oxa-5-azabicyclo[4.1.0]heptan-5-yl)-1,3,4-oxadiazol-2-yl]-1,1-dioxo-2,3-dihydro-1λ^6,5-benzothiazepin-4-one], the Emax in the assay with primary human T-cells [1] (setting [3]) was found to be 88%. Further, the EC50 was 4890 nM in the assay on primary human T-cells [1] (Homo sapiens, T-cell, 120 h) and over 10000 nM in the assay with primary human T-cells [2].
For `CC(C)(C)NC(=O)c1nc(-c2ccc3c(c2)N(Cc2ccc(Cl)cc2)C(=O)[C@@H](N)CS3(=O)=O)no1` [Example 354, 3-[(3R)-3-amino-5-[(4-chlorophenyl)methyl]-1,1,4-trioxo-2,3-dihydro-1λ^6,5-benzothiazepin-7-yl]-N-tert-butyl-1,2,4-oxadiazole-5-carboxamide], in the assay with primary human T-cells [1] (setting [3]), the Emax is 77%. The EC50 with primary human T-cells [1] (Homo sapiens, T-cell, 120 h) was 4710 nM; in the assay on primary human T-cells [2], over 10000 nM.
For `COCCN1CC(c2nnc(-c3cc4c(cc3F)S(=O)(=O)C[C@H](N)C(=O)N4Cc3ccc(Cl)cc3)o2)CC(F)(F)C1` (stereo partly drawn) [Example 151, (3R)-3-amino-5-[(4-chlorophenyl)methyl]-7-[5-[5,5-difluoro-1-(2-methoxyethyl)-3-piperidyl]-1,3,4-oxadiazol-2-yl]-8-fluoro-1,1-dioxo-2,3-dihydro-1λ^6,5-benzothiazepin-4-one], the Emax in the assay with primary human T-cells [1] (setting [3]) is 112%. For the same compound, the EC50 came to 45.9 nM with primary human T-cells [1] (Homo sapiens, T-cell, 120 h) and 93.4 nM with primary human T-cells [2].
As to `Cn1nnc(-c2cc3c(cc2F)S(=O)(=O)C[C@H](N)C(=O)N3Cc2ccc(Cl)cc2)n1` [Example 16, (3R)-3-amino-5-[(4-chlorophenyl)methyl]-8-fluoro-7-(2-methyltetrazol-5-yl)-1,1-dioxo-2,3-dihydro-1λ^6,5-benzothiazepin-4-one], the Emax with primary human T-cells [1] (setting [3]) is 65%. The EC50 was 3660 nM in the assay with primary human T-cells [1] (Homo sapiens, T-cell, 120 h) and 2830 nM with primary human T-cells [2].
For the compound `COC(F)(c1nc(-c2cc3c(cc2F)[S+]([O-])C[C@H](N)C(=O)N3Cc2ccc(F)cc2)no1)C(F)(F)F` (stereo partly drawn) [Example 514, (3R)-3-amino-8-fluoro-5-[(4-fluorophenyl)methyl]-1-oxo-7-[5-(1,2,2,2-tetrafluoro-1-methoxy-ethyl)-1,2,4-oxadiazol-3-yl]-2,3-dihydro-1λ^4,5-benzothiazepin-4-one], the Emax with primary human T-cells [1] (setting [3]) stood at 105%. The EC50 in the assay with primary human T-cells [1] (Homo sapiens, T-cell, 120 h) came to 1950 nM; with primary human T-cells [2] it was 1920 nM.

The values above are taken from patent US20240368150A1 (Hoffmann-La Roche Inc., priority 2021, published 2024).
